Laboratory results taken from EP4810052A2, “HCRHR2 SELECTIVE POLYPEPTIDES” (Gubra A/S, priority 2023, dated 2026).
Marks after values point to notes of the source that are not given here. Starred links: 1 amine or outer side, 2 acyl side, 3 side chain; linkers in the order of their positions; H or OH if unused. Non-standard residues stand in square brackets, D forms with d. Residues, ends and D or L forms follow the SMILES beside them. Groups on a side chain read outwards from the residue. *: point of attachment. C20 diacid = O=C(O)CCCCCCCCCCCCCCCCCCC(=O)*; γGlu = O=C(O)[C@H](CCC(=O)[*:2])N[*:1]; NMeI = CC[C@H](C)[C@H](NC)C(=O)O; Nle = CCCC[C@H](N)C(=O)O; AEEA = NCCOCCOCC(=O)O; Aib = CC(C)(N)C(=O)O

Columns and labels:
[1] = Chemical stability of purified peptides (RP-UHPLC main peak purity loss); type: physicochemical
Outline: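 Purity loss is the drop in RP-UHPLC main-peak area fraction (215 nm detection, C8 column at 50 °C) from time zero to day 14 and/or day 28 at 40 °C. Samples held roughly 1.0 mg/ml peptide in 50 mM phosphate, pH 7.5, with other pH targets also tested.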

[2] = Effect on acute food intake in mice; type: in vivo; details: single subcutaneous dose
Experimental: (§1) Male NMRI mice were obtained from JanVier (JanVier Labs, France) at 5 weeks of age. The animals were group-housed 4 mice pr. cage under a 12/12 h dark-light cycle, light off at 1 PM. Room temperature was controlled to 22°C ± 1°C, with 60 % ± 20% humidity. Animals had ad libitum access to regular rodent chow (Altromin 1324, Brogaarden, Denmark) and tap water.
Animals were transferred 5-7 days before the start of the study to a real-time food intake monitoring system, HM-2 system (MBRose, Denmark) to allow acclimatization to experimental conditions. As the animals were uniquely identified with microchips, each individual animal was identified by its microchip upon entry and exit from the food channel. Randomization of the mice for each study group (n=7-8) was based on body weight measured the day before the start of the study. A vehicle-treated group was included in each experiment. Six hours before the start of the dark phase, animals were fasted. One hour before the dark phase, animals were dosed once subcutaneously with test peptide. Food intake was reported hourly for a period of 72 hours. The percentage of food intake reduction was normalized to average food intake from the vehicle group. Statistical significance was evaluated using One-way analysis of variance with Dunnett's multiple comparison test. P < 0.05 was considered statistically significant.
Selected compounds were tested according to the general procedure on acute food intake in mice to determine the effect of a single subcutaneous dose on food intake in mice over 3 days.

[3] = PK in mice; type: in vivo; parameters: T½ / MRT: unit: h; details: Mouse
Experimental: as §1, with “Lean male NMRI/RjHan mice” for “Male NMRI mice”, “at 6” for “at 5”, “were single housed” for “were group-housed 4 mice pr. cage”, “at 3” for “at 1”
After 2 weeks of acclimatization, the animals were randomized into treatment groups (n=9 per group) based on body weight. Animals were dosed IV with one peptide and SC with another peptide (15 or 50 nmol/kg) Plasma samples were collected for PK analysis at times 0.17, 1, 3, 6, 24, 30, 48, 72 and 96 hours post dosing in a sparse sampling design with 3 mice per group per timepoint. Plasma samples were analyzed using LC-MSMS and PK parameters were estimated by Non-Compartmental Analysis (NCA).

[4] = pH 7.5, 40°C, 14 days, first value of cell
[5] = pH 7.5, 40°C, 28 days, second value of cell

CC[C@H](C)[C@H](N)C(=O)N[C@H](C(=O)N[C@@H](CC(C)C)C(=O)N[C@@H](CO)C(=O)N[C@@H](CC(C)C)C(=O)N[C@@H](CC(=O)O)C(=O)N[C@H](C(=O)N1CCC[C@H]1C(=O)N[C@H](C(=O)NCC(=O)N[C@@H](CC(C)C)C(=O)N[C@@H](CC(C)C)C(=O)N[C@@H](CCC(N)=O)C(=O)N[C@H](C(=O)N[C@@H](CC(C)C)C(=O)N[C@@H](CC(C)C)C(=O)N[C@@H](CCC(=O)O)C(=O)N[C@@H](CCC(N)=O)C(=O)N[C@@H](C)C(=O)N[C@@H](CCCNC(=N)N)C(=O)N[C@@H](C)C(=O)N[C@@H](CCCNC(=N)N)C(=O)N[C@@H](C)C(=O)N[C@@H](C)C(=O)N[C@@H](CCCNC(=N)N)C(=O)N[C@@H](CCC(=O)O)C(=O)N[C@@H](CCC(N)=O)C(=O)N[C@@H](C)C(=O)N[C@@H](CCCCNC(=O)COCCOCCNC(=O)COCCOCCNC(=O)CC[C@H](NC(=O)CC[C@H](NC(=O)CCCCCCCCCCCCCCCCCCC(=O)O)C(=O)O)C(=O)O)C(=O)NC(C)(C)C(=O)N[C@@H](CC(N)=O)C(=O)N[C@@H](C)C(=O)N[C@@H](CCC(=O)O)C(=O)N[C@H](C(=O)N[C@@H](CC(C)C)C(=O)N[C@@H](C)C(=O)N[C@@H](CCC(=O)O)C(=O)N[C@H](C(N)=O)C(C)C)[C@@H](C)CC)[C@@H](C)CC)[C@@H](C)CC)C(C)C)C(C)C [SEQ ID NO: 19] (H-IVLSLDVPIGLLQILLEQARARAAREQAK([AEEA-AEEA-γGlu-γGlu-C20 diacid])[Aib]NAEILAEV-NH2)
Chemical stability at pH 7.5 after 14 days at 40°C (% degradation) [1, 4]: -1.5%
Chemical stability at pH 7.5 after 28 days at 40°C (% degradation) [1, 5]: -2.6%
% FI compared to vehicle, 24 h post-dosing ([2]; 30 nmol/kg): 56.47*** %
% FI compared to vehicle, 24 h post-dosing ([2]; 100 nmol/kg): 29.68*** %
% FI compared to vehicle, 24 h post-dosing ([2]; 300 nmol/kg): 21.66*** %

CCCC[C@H](NC(=O)[C@@H](NC(=O)[C@H](CCC(=O)O)NC(=O)[C@H](C)NC(=O)[C@H](CC(N)=O)NC(=O)C(C)(C)NC(=O)[C@H](CCCCNC(=O)COCCOCCNC(=O)COCCOCCNC(=O)CC[C@H](NC(=O)CC[C@H](NC(=O)CCCCCCCCCCCCCCCCCCC(=O)O)C(=O)O)C(=O)O)NC(=O)[C@H](C)NC(=O)[C@H](CCC(N)=O)NC(=O)[C@H](CCC(=O)O)NC(=O)[C@H](CCCNC(=N)N)NC(=O)[C@H](C)NC(=O)[C@H](C)NC(=O)[C@H](CCCNC(=N)N)NC(=O)[C@H](C)NC(=O)[C@H](CCCNC(=N)N)NC(=O)[C@H](C)NC(=O)[C@H](CCC(N)=O)NC(=O)[C@H](CO)NC(=O)[C@H](CC(C)C)NC(=O)[C@H](CC(C)C)NC(=O)[C@@H](NC(=O)[C@H](CCC(N)=O)NC(=O)[C@H](CC(C)C)NC(=O)[C@H](CC(C)C)NC(=O)CNC(=O)[C@@H](NC(=O)[C@@H]1CCCN1C(=O)[C@@H](NC(=O)[C@H](CC(=O)O)NC(=O)[C@H](CC(C)C)NC(=O)[C@H](CO)NC(=O)[C@H](CC(C)C)NC(=O)[C@@H](NC(=O)[C@@H](N)[C@@H](C)CC)C(C)C)C(C)C)[C@@H](C)CC)[C@@H](C)CC)[C@@H](C)CC)C(=O)N[C@@H](C)C(=O)N[C@@H](CCC(=O)O)C(=O)N[C@H](C(N)=O)C(C)C [compound 237] (H-IVLSLDVPIGLLQILLSQARARAAREQAK([AEEA-AEEA-γGlu-γGlu-C20 diacid])[Aib]NAEI[Nle]AEV-NH2)
Chemical stability at pH 7.5 after 14 days at 40°C (% degradation) ([1]; pH 7.5, 14 days, 40°C): -1.1%
Chemical stability at pH 7.5 after 28 days at 40°C (% degradation) ([1]; pH 7.5, 28 days, 40°C): -2.8%
% FI compared to vehicle, 24 h post-dosing ([2]; 30 nmol/kg): 51.49*** %
% FI compared to vehicle, 24 h post-dosing ([2]; 100 nmol/kg): 16.66*** %
% FI compared to vehicle, 24 h post-dosing ([2]; 300 nmol/kg): 13.2*** %

CC[C@H](C)[C@H](NC)C(=O)N[C@H](C(=O)N[C@@H](CC(C)C)C(=O)N[C@@H](CO)C(=O)N[C@@H](CC(C)C)C(=O)N[C@@H](CC(=O)O)C(=O)N[C@H](C(=O)N1CCC[C@H]1C(=O)N[C@H](C(=O)NCC(=O)N[C@@H](CC(C)C)C(=O)N[C@@H](CC(C)C)C(=O)N[C@@H](CCC(N)=O)C(=O)N[C@H](C(=O)N[C@@H](CC(C)C)C(=O)N[C@@H](CC(C)C)C(=O)N[C@@H](CCC(=O)O)C(=O)N[C@@H](CCC(N)=O)C(=O)N[C@@H](C)C(=O)N[C@@H](CCCNC(=N)N)C(=O)N[C@@H](C)C(=O)N[C@@H](CCCNC(=N)N)C(=O)N[C@@H](C)C(=O)N[C@@H](C)C(=O)N[C@@H](CCCNC(=N)N)C(=O)N[C@@H](CCC(=O)O)C(=O)N[C@@H](CCC(N)=O)C(=O)N[C@@H](C)C(=O)N[C@@H](CCCCNC(=O)COCCOCCNC(=O)COCCOCCNC(=O)CC[C@H](NC(=O)CC[C@H](NC(=O)CCCCCCCCCCCCCCCCCCC(=O)O)C(=O)O)C(=O)O)C(=O)N[C@H](C(=O)N[C@@H](CC(N)=O)C(=O)N[C@@H](C)C(=O)N[C@@H](CCC(=O)O)C(=O)N[C@H](C(=O)N[C@@H](CC(C)C)C(=O)N[C@@H](C)C(=O)N[C@@H](CCC(=O)O)C(=O)N[C@H](C(N)=O)C(C)C)[C@@H](C)CC)[C@@H](C)O)[C@@H](C)CC)[C@@H](C)CC)C(C)C)C(C)C [SEQ ID NO: 5] (H-[NMeI]VLSLDVPIGLLQILLEQARARAAREQAK([AEEA-AEEA-γGlu-γGlu-C20 diacid])TNAEILAEV-NH2)
MRT [3]: 21
T½ [3]: 14.3
% FI compared to vehicle, 24 h post-dosing ([2]; 30 nmol/kg): 45.67*** %
% FI compared to vehicle, 24 h post-dosing ([2]; 100 nmol/kg): 18.68*** %
% FI compared to vehicle, 24 h post-dosing ([2]; 300 nmol/kg): 15.93*** %

CCCC[C@H](NC(=O)[C@@H](NC(=O)[C@H](CCC(=O)O)NC(=O)[C@H](C)NC(=O)[C@H](CC(N)=O)NC(=O)[C@H](CCC(=O)O)NC(=O)[C@H](CCCCNC(=O)COCCOCCNC(=O)COCCOCCNC(=O)CC[C@H](NC(=O)CC[C@H](NC(=O)CCCCCCCCCCCCCCCCCCC(=O)O)C(=O)O)C(=O)O)NC(=O)[C@H](C)NC(=O)[C@H](CCC(N)=O)NC(=O)[C@H](CCC(=O)O)NC(=O)[C@H](CCCNC(=N)N)NC(=O)[C@H](C)NC(=O)[C@H](C)NC(=O)[C@H](CCCNC(=N)N)NC(=O)[C@H](C)NC(=O)[C@H](CCCNC(=N)N)NC(=O)[C@H](C)NC(=O)[C@H](CCC(N)=O)NC(=O)[C@H](CO)NC(=O)[C@H](CC(C)C)NC(=O)[C@H](CC(C)C)NC(=O)[C@@H](NC(=O)[C@H](CCC(N)=O)NC(=O)[C@H](CC(C)C)NC(=O)[C@H](CC(C)C)NC(=O)CNC(=O)[C@@H](NC(=O)[C@@H]1CCCN1C(=O)[C@@H](NC(=O)[C@H](CC(=O)O)NC(=O)[C@H](CC(C)C)NC(=O)[C@H](CO)NC(=O)[C@H](CC(C)C)NC(=O)[C@@H](NC(=O)[C@@H](NC)[C@@H](C)CC)C(C)C)C(C)C)[C@@H](C)CC)[C@@H](C)CC)[C@@H](C)CC)C(=O)N[C@@H](C)C(=O)N[C@@H](CCC(=O)O)C(=O)N[C@H](C(N)=O)C(C)C [compound 101] (H-[NMeI]VLSLDVPIGLLQILLSQARARAAREQAK([AEEA-AEEA-γGlu-γGlu-C20 diacid])ENAEI[Nle]AEV-NH2)
Chemical stability at pH 7.5 after 14 days at 40°C (% degradation) ([1]; pH 7.5, 14 days, 40°C): -2.2%
Chemical stability at pH 7.5 after 28 days at 40°C (% degradation) ([1]; pH 7.5, 28 days, 40°C): -4.3%
% FI compared to vehicle, 24 h post-dosing ([2]; 30 nmol/kg): 30.85*** %
% FI compared to vehicle, 24 h post-dosing ([2]; 100 nmol/kg): 21.44*** %
% FI compared to vehicle, 24 h post-dosing ([2]; 300 nmol/kg): 8.09*** %

CC[C@H](C)[C@H](N)C(=O)N[C@H](C(=O)N[C@@H](CC(C)C)C(=O)N[C@@H](CO)C(=O)N[C@@H](CC(C)C)C(=O)N[C@@H](CC(=O)O)C(=O)N[C@H](C(=O)N1CCC[C@H]1C(=O)N[C@H](C(=O)NCC(=O)N[C@@H](CC(C)C)C(=O)N[C@@H](CC(C)C)C(=O)N[C@@H](CCC(N)=O)C(=O)N[C@H](C(=O)N[C@@H](CC(C)C)C(=O)N[C@@H](CC(C)C)C(=O)N[C@@H](CCC(=O)O)C(=O)N[C@@H](CCC(N)=O)C(=O)N[C@@H](C)C(=O)N[C@@H](CCCNC(=N)N)C(=O)N[C@@H](C)C(=O)N[C@@H](CCCNC(=N)N)C(=O)N[C@@H](C)C(=O)N[C@@H](C)C(=O)N[C@@H](CCCNC(=N)N)C(=O)N[C@@H](CCC(=O)O)C(=O)N[C@@H](CCC(N)=O)C(=O)N[C@@H](C)C(=O)N[C@@H](CCCCNC(=O)COCCOCCNC(=O)COCCOCCNC(=O)CC[C@H](NC(=O)CC[C@H](NC(=O)CCCCCCCCCCCCCCCCCCC(=O)O)C(=O)O)C(=O)O)C(=O)N[C@@H](CCC(=O)O)C(=O)N[C@@H](CC(N)=O)C(=O)N[C@@H](C)C(=O)N[C@@H](CCC(=O)O)C(=O)N[C@H](C(=O)N[C@@H](CC(C)C)C(=O)N[C@@H](C)C(=O)N[C@@H](CCC(=O)O)C(=O)N[C@H](C(N)=O)C(C)C)[C@@H](C)CC)[C@@H](C)CC)[C@@H](C)CC)C(C)C)C(C)C [SEQ ID NO: 17] (H-IVLSLDVPIGLLQILLEQARARAAREQAK([AEEA-AEEA-γGlu-γGlu-C20 diacid])ENAEILAEV-NH2)
Chemical stability at pH 7.5 after 14 days at 40°C (% degradation) [1, 4]: -1.6%
Chemical stability at pH 7.5 after 28 days at 40°C (% degradation) [1, 5]: -2.6%
% FI compared to vehicle, 24 h post-dosing ([2]; 30 nmol/kg): 78.97* %
% FI compared to vehicle, 24 h post-dosing ([2]; 100 nmol/kg): 48.64*** %
% FI compared to vehicle, 24 h post-dosing ([2]; 300 nmol/kg): 19.52*** %
